According to patent US4481203A, “Composition containing 1-(n-hexylcarbamoyl)-5-fluorouracil and uracil” (priority 1977, dated 1984):
Read-outs that look alike come from different tables or passages of the source.

How the values were obtained:
AH-130 [1] = assay: Effects of Preparations 1 to 8 on AH-130 (Table 4); type: in vivo, male Donryu rats
Text: (§1) Ascites cells (5×10^6) of AH-130, are subcutaneously transplanted in the armpit of male Donryu rats weighing about 200 g (ten rats in each group). […] Twenty-four hours after the transplantation and during the following seven consecutive days the suspension is orally given to the animal once every day at the dose listed in Table 2. On the 10th day after the transplantation, the tumor is removed from the body and weighed to calculate the average weight (T) of the tumors in the group to which the composition has been given and the corresponding weight (C) in the control group to determine the ratio T/C.
(4) Compositions formulated according to Preparations 1 to 8 given above are tested by the foregoing method for effects on AH-130.

sarcoma 180 [2] = assay: Therapeutic effect on sarcoma 180 transplanted in mice (Table 5); type: in vivo, male mice of ICR strain; details: oral, 14400 min
Procedure: (§2) (5) The anti-cancer compositions of this invention are tested in mice by the following methods to determine acute toxicity, therapeutic effect and theapeutic index.
Tissues of sarcoma 180, 2×10^6, are subcutaneously transplanted in the back of male mice of ICR strain (6 mice in each group). […] Twenty-four hours after the transplantation and during the following seven consecutive days the suspension is orally given to the animal once every day.

AH-130 [3] = assay: Anti-cancer effect (T/C) on subcutaneously transplanted AH-130, oral administration (Table 2); type: in vivo, male Donryu rats
Text: (2) Determination of effects
as §1

sarcoma 180 [4] = assay: Therapeutic index (LD50/ED50) in mice (Table 5); type: in vivo, male mice of ICR strain; details: oral
Text: The LD50 and ED50 values obtained above are used to determine the therapeutic index (LD50 /ED50).

in vivo = type: in vivo; details: mouse, in vivo, po, mice
Procedure: as §2
Male mice of ICR strain weighing 22±1 g are used, 5 mice in each group. […] Over the following period of three weeks the mice are checked every day for poisoning, body weight and mortality. The LD50 is determined according to the up-and-down method 3 weeks after the administration.

[5] = uracil (b)/(a) mol ratio 0, as amount of 5-fluorouracil (a)
[6] = uracil (b)/(a) mol ratio 2.5, as amount of 5-fluorouracil (a)
[7] = uracil (b)/(a) mol ratio 10, as amount of 5-fluorouracil (a)
[8] = Rattus norvegicus, po, 240 h; read-out: Anti-cancer effect (T/C)
[9] = oral, 5-fluorouracil (a) 0.5 m.mol/kg + uracil 0.1 m.mol/kg
[10] = oral, 5-fluorouracil (a) 0.5 m.mol/kg + uracil 0.2 m.mol/kg
[11] = oral, 5-fluorouracil (a) 0.5 m.mol/kg + uracil 0.5 m.mol/kg
[12] = oral, 5-fluorouracil (a) 0.5 m.mol/kg + uracil 1 m.mol/kg
[13] = Rattus norvegicus, po, 240 h, read-out: Anti-cancer effect (T/C)

| SMILES | ED50 (sarcoma 180 [2]; [5]) | ED50 (sarcoma 180 [2]; [6]) | ED50 (sarcoma 180 [2]; [7]) | response vs control in vivo at 500 µmol/kg (AH-130 [3]; [8]) | Anti-cancer effect (T/C) (AH-130 [3]; [10]) | Anti-cancer effect (T/C) (AH-130 [3]; [11]) | Anti-cancer effect (T/C) (AH-130 [3]; [12]) | Therapeutic index (LD50/ED50) (sarcoma 180 [4]; uracil (b)/(a) mol ratio 0) | Therapeutic index (LD50/ED50) (sarcoma 180 [4]; uracil (b)/(a) mol ratio 2.5) | Therapeutic index (LD50/ED50) (sarcoma 180 [4]; uracil (b)/(a) mol ratio 10) | LD50 at 504 h (in vivo; [5]) | LD50 at 504 h (in vivo; [6]) | LD50 at 504 h (in vivo; [7]) | further results |
| --- | --- | --- | --- | --- | --- | --- | --- | --- | --- | --- | --- | --- | --- | --- |
| O=c1[nH]c(=O)n(C2CCCO2)cc1F (stereo not shown) [Compound 2, 1-(2-Tetrahydrofuryl)-5-fluorouracil, reference compound] | 140 mg/kg | 20 mg/kg | 11 mg/kg | 65% | 0.23 | 0.17 | 0.06 | – | – | – | – | – | – | Anti-cancer effect (control) (T/C) (AH-130 [1]; I.v., Compd. 2 100 mg/kg, formulated as Preparation 7 but no uracil): 0.61; Anti-cancer effect (control) (T/C) (AH-130 [1]; oral, Compd. 2 100 mg/kg, formulated as Preparation 1 but no uracil): 0.68; Anti-cancer effect (control) (T/C) (AH-130 [1]; via anus, Compd. 2 100 mg/kg, formulated as Preparation 8 but no uracil): 0.51; Anti-cancer effect (T/C) (AH-130 [3]; oral, 5-fluorouracil (a) 0.5 m.mol/kg + uracil 0.05 m.mol/kg): 0.49; Anti-cancer effect (T/C) (AH-130 [3]; [9]): 0.30 |
| O=c1c(F)cn(C2CCCO2)c(=O)n1C1CCCO1 (stereo not shown) [Compound 3, 1,3-bis(2-Tetrahydrofuryl)-5-fluorouracil] | 118 mg/kg | 63 mg/kg | 27 mg/kg | 24% | 0.18 | 0.12 | 0.08 | 18.8 | 30.1 | 42.9 | 2220 mg/kg | 1890 mg/kg | 1160 mg/kg | Anti-cancer effect (control) (T/C) (AH-130 [1]; oral, Compd. 3 120 mg/kg, formulated as Preparation 2 but no uracil): 0.25; Anti-cancer effect (control) (T/C) (AH-130 [1]; oral, Compd. 3 120 mg/kg, formulated as Preparation 4 but no uracil): 0.25 |
| CCCCCCNC(=O)n1cc(F)c(=O)[nH]c1=O [Compound 4, 1-(n-Hexylcarbamoyl)-5-fluorouracil] | 60 mg/kg | 24 mg/kg | 20 mg/kg | – | 0.21 | 0.15 | 0.12 | 21.0 | 40.8 | 32.2 | 1260 mg/kg | 980 mg/kg | 644 mg/kg | Anti-cancer effect (control) (T/C) (AH-130 [1]; oral, Compd. 4 50 mg/kg, formulated as Preparation 3 but no uracil): 0.45; response vs control in vivo at 500 µmol/kg (AH-130 [3]; [13]): 39% |
| CCOCn1cc(F)c(=O)[nH]c1=O [Compound 5, 1-Ethoxymethyl-5-fluorouracil] | – | 26 mg/kg | 13 mg/kg | 68% | 0.33 | 0.19 | 0.08 | – | – | – | 1000 mg/kg | 446 mg/kg | 191 mg/kg | Anti-cancer effect (control) (T/C) (AH-130 [1]; oral, Compd. 5 100 mg/kg, formulated as Preparation 5 but no uracil): 0.72 |
| O=c1[nH]cc(F)c(=O)n1C1CCCO1 (stereo not shown) [Compound 7, 3-(2-Tetrahydrofuryl)-5-fluorouracil] | 78 mg/kg | 29 mg/kg | 16 mg/kg | 20% | – | 0.06 | – | 13.1 | 23.7 | 23.8 | 1020 mg/kg | 687 mg/kg | 381 mg/kg | Anti-cancer effect (T/C) (AH-130 [3]; [9]): 0.12 |
| O=c1[nH]c(=O)n(S(=O)(=O)c2ccccc2)cc1F [Compound 8, 1-Benzenesulfonyl-5-fluorouracil] | 234 mg/kg | 88 mg/kg | 48 mg/kg | 48% | – | 0.21 | – | – | – | – | 1170 mg/kg | 973 mg/kg | 427 mg/kg | Anti-cancer effect (T/C) (AH-130 [3]; [9]): 0.39 |
| CCOC(=O)n1cc(F)c(=O)[nH]c1=O [Compound 9, 1-Ethoxycarbonyl-5-fluorouracil] | 101 mg/kg | 39 mg/kg | 28 mg/kg | – | – | 0.06 | – | 3.3 | 6.9 | 6.4 | 332 mg/kg | 269 mg/kg | 179 mg/kg | response vs control in vivo at 500 µmol/kg (AH-130 [3]; [13]): 22% |
| CCCC(=O)n1cc(F)c(=O)[nH]c1=O [Compound 10, 1-(n-Butyryl)-5-fluorouracil] | 111 mg/kg | 37 mg/kg | 28 mg/kg | 38% | – | 0.11 | – | – | – | – | – | – | – | – |
| CCCCn1cc(F)c(=O)[nH]c1=O [Compound 11, 1-(n-Butyl)-5-fluorouracil] | 186 mg/kg | 88 mg/kg | 49 mg/kg | 77% | – | 0.53 | – | 4.7 | 8.2 | 7.3 | 867 mg/kg | 723 mg/kg | 358 mg/kg | – |
| Fc1cnc(OCc2ccccc2)nc1OCc1ccccc1 [Compound 12, 2,4-Dibenzyl-5-fluorouracil] | 362 mg/kg | 224 mg/kg | 163 mg/kg | 55% | – | 0.41 | – | – | – | – | – | – | – | – |
| O=c1cc[nH]c(=O)[nH]1 [uracil (b), uracil] | – | – | – | – | – | – | – | – | – | – | – | – | – | effect (T/C) (AH-130 [3]; oral, uracil (b) alone 1 m.mol/kg): 0.96; anti-cancer effect of uracil itself (AH-130 [3]; uracil (b) itself): no anti-cancer effect whatever |
